Reference: ChEMBL document CHEMBL1201862, “PubChem BioAssay data set” (2004)
The source made the active and inactive calls.

How the values were obtained:
[1] = test system: HEK293; assay: NOD1 signaling inhibitors, primary screen, cell-based, luminescence, uHTS (AID 1578); type: functional; details: Homo sapiens
[2] = test system: HEK293; assay: cells; type: functional, cell-based; details: Homo sapiens
[3] = test system: HEK293; assay: cells; type: functional, cell-based; details: Homo sapiens; remark: listed apart in the source
[4] = biological target: Nucleotide-binding oligomerization domain-containing protein 2 (Homo sapiens, UniProt Q9HC29); assay: NOD2 signaling inhibitors, cell-based, luminescence, uHTS, HEK293 (AID 1566); type: functional
Sequence of Nucleotide-binding oligomerization domain-containing protein 2 (Q9HC29 whole entry, the tested form may be a part): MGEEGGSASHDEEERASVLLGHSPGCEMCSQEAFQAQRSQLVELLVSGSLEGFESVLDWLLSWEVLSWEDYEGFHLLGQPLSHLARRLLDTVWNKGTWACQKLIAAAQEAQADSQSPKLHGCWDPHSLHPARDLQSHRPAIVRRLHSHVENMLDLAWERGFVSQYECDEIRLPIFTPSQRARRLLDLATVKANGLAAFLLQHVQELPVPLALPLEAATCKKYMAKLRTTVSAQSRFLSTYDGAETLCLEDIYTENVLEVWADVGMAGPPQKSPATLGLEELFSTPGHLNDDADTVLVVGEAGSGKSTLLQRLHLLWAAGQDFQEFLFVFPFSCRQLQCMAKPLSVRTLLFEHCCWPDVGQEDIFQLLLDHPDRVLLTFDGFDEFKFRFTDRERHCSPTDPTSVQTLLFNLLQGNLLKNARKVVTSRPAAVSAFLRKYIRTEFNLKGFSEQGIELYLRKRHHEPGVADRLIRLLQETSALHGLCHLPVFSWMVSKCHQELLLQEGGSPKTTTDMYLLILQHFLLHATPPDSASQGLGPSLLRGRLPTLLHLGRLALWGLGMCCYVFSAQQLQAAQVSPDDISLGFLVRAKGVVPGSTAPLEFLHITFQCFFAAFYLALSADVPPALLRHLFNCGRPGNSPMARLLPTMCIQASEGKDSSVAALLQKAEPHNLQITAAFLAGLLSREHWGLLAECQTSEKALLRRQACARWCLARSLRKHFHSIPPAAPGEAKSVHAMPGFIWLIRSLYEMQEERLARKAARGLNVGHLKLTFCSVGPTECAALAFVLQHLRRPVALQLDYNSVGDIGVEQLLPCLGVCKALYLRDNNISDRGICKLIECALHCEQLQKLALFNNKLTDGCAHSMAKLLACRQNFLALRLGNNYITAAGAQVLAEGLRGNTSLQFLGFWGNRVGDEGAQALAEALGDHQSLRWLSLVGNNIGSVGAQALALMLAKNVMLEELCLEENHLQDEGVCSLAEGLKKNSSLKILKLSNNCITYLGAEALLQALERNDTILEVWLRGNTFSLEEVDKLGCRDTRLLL

[5] = test system: HEK293; assay: NOD2 signaling inhibitors in MDP-stimulated cells, cell-based, uHTS, luminescence (AID 2001); type: functional; details: Homo sapiens
[6] = test system: HEK293; assay: cells; type: functional, cell-based; details: Homo sapiens; remark: listed apart in the source
[7] = biological target: T1, Estrogen receptor (Homo sapiens, UniProt P03372);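 also: potency for inhibiting coactivator peptide recruitment to the receptor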
T1 sequence (P03372 whole entry): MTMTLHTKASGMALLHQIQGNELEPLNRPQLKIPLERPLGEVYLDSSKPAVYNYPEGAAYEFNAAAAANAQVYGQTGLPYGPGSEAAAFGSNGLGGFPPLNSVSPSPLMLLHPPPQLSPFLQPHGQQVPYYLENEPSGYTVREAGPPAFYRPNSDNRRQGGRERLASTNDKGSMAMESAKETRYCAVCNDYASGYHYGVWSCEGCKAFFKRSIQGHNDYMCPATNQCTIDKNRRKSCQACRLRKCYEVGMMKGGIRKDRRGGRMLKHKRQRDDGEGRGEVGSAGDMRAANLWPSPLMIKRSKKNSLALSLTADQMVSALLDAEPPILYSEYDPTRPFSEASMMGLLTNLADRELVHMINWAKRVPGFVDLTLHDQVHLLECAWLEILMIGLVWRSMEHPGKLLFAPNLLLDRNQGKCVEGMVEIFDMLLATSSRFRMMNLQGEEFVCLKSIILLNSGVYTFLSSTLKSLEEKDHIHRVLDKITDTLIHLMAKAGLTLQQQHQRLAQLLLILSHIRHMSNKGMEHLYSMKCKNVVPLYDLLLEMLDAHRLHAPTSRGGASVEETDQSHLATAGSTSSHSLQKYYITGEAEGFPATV

[8] = NIH-3T3 fibroblast cytotoxicity, dose response, cytotoxicity control, cell-based, fluorescence, Alamar Blue, secondary assay (AID 2327); type: functional;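 also: NIH-3T3 mouse fibroblasts cultured with fluconazole at 8 µg/mL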
[9] = C. albicans growth with fluconazole, confirmation, fluorescence, retest (AID 2467); type: functional, cell-based
[10] = cytotoxicity in HEK-293T cells, dose response, cytotoxicity control for TCR NF-kB inhibitor project, luminescence, T-cell screen hits (AID 489026); type: functional, cell-based;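 also: cells exposed to compound about 14 hours before the viability readout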
[11] = test system: INS1; assay: beta cell apoptosis inhibitors, cytokine rescue, dose response, luminescence, retest (AID 449756); type: functional, cell-based; details: Rattus norvegicus;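 also: cell death triggered by IL-1 beta plus TNF-alpha plus IFN-gamma mixture; protective hits raise ATP signal compared with cytokine alone wells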
[12] = biological target: T2, DNA repair protein RAD52 homolog (Homo sapiens, UniProt P43351); type: functional, biochemical
T2 sequence (P43351 whole entry): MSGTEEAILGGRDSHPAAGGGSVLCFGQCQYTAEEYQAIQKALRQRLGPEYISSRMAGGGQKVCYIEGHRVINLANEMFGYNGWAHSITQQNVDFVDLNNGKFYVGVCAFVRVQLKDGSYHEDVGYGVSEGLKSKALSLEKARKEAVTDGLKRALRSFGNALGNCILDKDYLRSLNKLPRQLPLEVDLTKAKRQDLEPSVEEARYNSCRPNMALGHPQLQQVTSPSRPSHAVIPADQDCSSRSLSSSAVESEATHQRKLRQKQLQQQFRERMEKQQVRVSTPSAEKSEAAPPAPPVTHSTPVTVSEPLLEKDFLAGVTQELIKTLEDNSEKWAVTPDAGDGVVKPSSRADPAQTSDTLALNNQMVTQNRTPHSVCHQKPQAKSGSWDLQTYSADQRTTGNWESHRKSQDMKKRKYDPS

[13] = biological target: Glyceraldehyde-3-phosphate dehydrogenase (Homo sapiens, UniProt P04406)
Sequence of Glyceraldehyde-3-phosphate dehydrogenase (P04406 whole entry): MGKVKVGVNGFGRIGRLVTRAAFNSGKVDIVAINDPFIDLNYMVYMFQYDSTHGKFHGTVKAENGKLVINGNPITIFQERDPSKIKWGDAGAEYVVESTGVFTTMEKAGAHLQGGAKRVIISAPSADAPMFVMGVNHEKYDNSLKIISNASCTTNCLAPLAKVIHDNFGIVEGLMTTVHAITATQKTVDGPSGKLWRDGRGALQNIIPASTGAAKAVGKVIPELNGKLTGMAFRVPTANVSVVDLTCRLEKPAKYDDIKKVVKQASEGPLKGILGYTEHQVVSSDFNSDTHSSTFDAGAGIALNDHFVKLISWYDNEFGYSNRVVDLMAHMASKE

[14] = test system: HEK293; assay: inhibitors of LMP1-driven NF-kB reporter, dose response, cell-based, HEK293, luciferase, cherry-pick (AID 588343); type: functional; details: Homo sapiens
[15] = biological target: Beta-galactosidase (Escherichia coli, UniProt Q8VNN2); assay: PubChem AID 485352; type: functional
Sequence of Beta-galactosidase (Q8VNN2 whole entry): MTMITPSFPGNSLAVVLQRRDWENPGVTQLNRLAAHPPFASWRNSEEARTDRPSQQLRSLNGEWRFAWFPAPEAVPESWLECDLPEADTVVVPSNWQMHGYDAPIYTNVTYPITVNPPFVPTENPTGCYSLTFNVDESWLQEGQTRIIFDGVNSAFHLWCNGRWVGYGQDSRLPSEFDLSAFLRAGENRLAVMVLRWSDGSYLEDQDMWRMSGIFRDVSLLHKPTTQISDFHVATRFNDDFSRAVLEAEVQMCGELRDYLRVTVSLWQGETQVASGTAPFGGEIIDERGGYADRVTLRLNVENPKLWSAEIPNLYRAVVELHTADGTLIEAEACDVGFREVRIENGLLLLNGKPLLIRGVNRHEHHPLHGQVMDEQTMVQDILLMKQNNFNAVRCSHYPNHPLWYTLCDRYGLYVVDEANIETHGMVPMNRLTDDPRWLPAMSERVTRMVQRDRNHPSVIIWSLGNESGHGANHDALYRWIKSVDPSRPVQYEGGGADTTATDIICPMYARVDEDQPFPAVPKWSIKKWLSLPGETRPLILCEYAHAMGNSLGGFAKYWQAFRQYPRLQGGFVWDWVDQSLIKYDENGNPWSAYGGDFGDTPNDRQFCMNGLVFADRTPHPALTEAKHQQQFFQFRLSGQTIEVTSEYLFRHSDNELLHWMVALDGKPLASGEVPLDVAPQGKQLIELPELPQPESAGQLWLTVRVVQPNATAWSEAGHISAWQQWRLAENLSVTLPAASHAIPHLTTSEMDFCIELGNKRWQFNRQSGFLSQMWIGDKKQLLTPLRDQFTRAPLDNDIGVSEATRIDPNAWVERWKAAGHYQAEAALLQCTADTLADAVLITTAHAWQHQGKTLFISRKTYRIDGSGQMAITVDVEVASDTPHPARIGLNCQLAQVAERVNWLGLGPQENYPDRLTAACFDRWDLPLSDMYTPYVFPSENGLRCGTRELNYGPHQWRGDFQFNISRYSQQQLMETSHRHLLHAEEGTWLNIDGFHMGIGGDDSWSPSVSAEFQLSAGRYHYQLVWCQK

[16] = biological target: T3, Type-1 angiotensin II receptor (Homo sapiens, UniProt P30556); assay: AT1 receptor antagonists, dose response, selectivity assay for APJ receptor antagonist project, cell-based, uHTS hits (AID 463214); type: functional;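 also: antagonist potency against angiotensin II stimulated AT1 response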
T3 sequence (P30556 whole entry): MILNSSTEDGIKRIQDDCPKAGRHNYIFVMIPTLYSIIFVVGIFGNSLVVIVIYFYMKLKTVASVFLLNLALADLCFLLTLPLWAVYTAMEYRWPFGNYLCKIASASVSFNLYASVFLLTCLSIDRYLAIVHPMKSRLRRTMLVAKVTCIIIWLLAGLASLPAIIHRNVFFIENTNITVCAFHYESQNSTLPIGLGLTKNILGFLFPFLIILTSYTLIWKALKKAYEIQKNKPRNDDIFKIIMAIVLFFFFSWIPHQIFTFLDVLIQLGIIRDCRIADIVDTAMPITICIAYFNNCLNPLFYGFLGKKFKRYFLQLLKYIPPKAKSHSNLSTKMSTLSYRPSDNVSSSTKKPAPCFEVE

[17] = biological target: T4, Microphthalmia-associated transcription factor (Homo sapiens, UniProt O75030); assay: TRPM1 promoter luciferase signal decrease, dose response, MITF inhibitor project, cell-based, SK-MEL-5, cherry-picked, set 3 (AID 493073); type: functional
T4 sequence (O75030 whole entry): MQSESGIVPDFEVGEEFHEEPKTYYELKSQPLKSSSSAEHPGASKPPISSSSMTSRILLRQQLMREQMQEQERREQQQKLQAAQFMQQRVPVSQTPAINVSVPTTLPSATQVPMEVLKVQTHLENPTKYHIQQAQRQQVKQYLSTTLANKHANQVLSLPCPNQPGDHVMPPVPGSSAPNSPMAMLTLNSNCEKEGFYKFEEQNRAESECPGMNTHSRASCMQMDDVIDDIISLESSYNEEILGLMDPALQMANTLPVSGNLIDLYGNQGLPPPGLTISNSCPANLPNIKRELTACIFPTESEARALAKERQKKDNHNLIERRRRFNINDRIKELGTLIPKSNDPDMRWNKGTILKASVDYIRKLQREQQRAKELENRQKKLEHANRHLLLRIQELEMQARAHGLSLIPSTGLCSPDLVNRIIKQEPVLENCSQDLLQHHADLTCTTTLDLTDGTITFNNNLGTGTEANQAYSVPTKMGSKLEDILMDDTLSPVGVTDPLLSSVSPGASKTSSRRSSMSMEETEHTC

[18] = HEp-2 cell cytotoxicity, dose response, cytotoxicity control for RSV inhibitor project, HTS (AID 2410); type: functional; details: human respiratory syncytial virus
[19] = biological target: T5, Bcl-2-related protein A1 (Mus musculus, UniProt Q07440); type: functional;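 also: confirmatory dose–response counterscreen on Bfl-1, used to check hits from a UBC13 polyubiquitin inhibitor campaign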
T5 sequence (Q07440 whole entry): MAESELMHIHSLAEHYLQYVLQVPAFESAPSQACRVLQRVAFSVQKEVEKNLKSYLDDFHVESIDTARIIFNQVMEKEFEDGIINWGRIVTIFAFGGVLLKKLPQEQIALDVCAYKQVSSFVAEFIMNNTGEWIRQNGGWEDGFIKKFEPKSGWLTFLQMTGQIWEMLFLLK

[20] = biological target: T6, Ubiquitin-conjugating enzyme E2 N (Homo sapiens, UniProt P61088); type: functional
T6 sequence (P61088 whole entry): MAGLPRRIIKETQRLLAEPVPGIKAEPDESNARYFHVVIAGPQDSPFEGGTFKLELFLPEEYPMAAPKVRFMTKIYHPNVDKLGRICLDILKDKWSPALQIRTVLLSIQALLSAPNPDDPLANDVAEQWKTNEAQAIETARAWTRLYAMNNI

[21] = biological target: T6, Ubiquitin-conjugating enzyme E2 N; type: functional; remark: listed apart in the source

For `COc1ccc(C(=O)NC(=C(Cl)Cl)S(=O)(=O)c2ccc(C)cc2)cc1`, the EC50 [1] was 12.3 µM (active), the IC50 [2] was 8.07 µM (active) and the IC50 [3] was > 20 µM (inactive). The EC50 [4] was > 20 µM (inactive), the IC50 [5] was 8.96 µM (active) and the IC50 [6] was > 20 µM (inactive).

For `CS(=O)(=O)c1ccc2nc(NC(=O)CCC(=O)c3cccs3)sc2c1`, the IC50 [7] was 7.11 µM (active).

In the case of `CCCCCc1ccc(OCCCC[n+]2ccc(C)cc2)c(CCCCC)c1`, the EC50 [8] is reported as > 160 µM (inactive), the EC50 [9] is reported as 0.516 µM (active) and the IC50 [10] is reported as 58 µM (inactive). The AC50 [11] was 1.92 µM (active) and the AC50 [12] was 21.7 µM (active).

In the case of `Cc1cccc(N2C(=O)C(Cl)=C(N3CCN[C@H](C)C3)C2=O)c1`, the IC50 [13] is reported as > 50 µM (inconclusive).

For `Cc1ccc(C(=O)Nc2nnc(SCC(=O)N3CCCc4ccccc43)s2)cc1`, the AC50 [14] was 1.3 µM (active).

With `Cc1cc(C)nc(NNS(=O)(=O)c2c(F)cc(F)cc2Br)n1` the EC50 [15] was > 40 µM (inactive) and the IC50 [16] was 22.7 µM (not active).

With `COc1cc(/C=C2/SC(=S)NC2=O)cc(Cl)c1OCc1cccc2ccccc12` the IC50 [13] was > 100 µM (not active).

In the case of `O=C(CCl)N1c2ccccc2SCC1c1ccccc1` (stereo not given), the EC50 [8] is reported as 7.57 µM (inconclusive), the EC50 [1] is reported as 11.5 µM (active) and the IC50 [2] is reported as 5.49 µM (active). For the same molecule, the EC50 [9] was > 38 µM (not active), the IC50 [3] was > 20 µM (inactive) and the EC50 [4] was > 20 µM (inactive). For the same molecule, the IC50 [5] was 8.37 µM (active), the IC50 [6] was > 20 µM (inactive) and the AC50 [17] was 4.2 µM (active).

With `CCc1ccc2nc(N(CCCN(C)C)C(=O)c3ccc(C(=O)c4ccccc4)cc3)sc2c1` the CC50 [18] was 20.5 µM (active), the IC50 [19] was > 20 µM (inactive) and the IC50 [20] was 13.2 µM (active). For the same molecule, the IC50 [21] was 11.6 µM (active).
